Tests used:
I/R-injured mouse hearts = test: Langendorff ischemia/reperfusion injury of isolated mouse hearts, post-conditioning (peptide at reperfusion); infarct size by TTC; parameters: species or system mouse (C57BL/6J); settings: isolated C57BL6 hearts, peptide 1.47 nmol/L during 60 min reperfusion after 20 min ischemia, Control I/R 37.6±1.3%, Mean±SEM
Method: Hearts of C57BL6 mice were freshly isolated and subject to ischemia reperfusion (I/R) injury using a Langendorff perfusion system. Hearts were pre-perfused with Krebs-Henseleit buffer for 40 minutes, and then I/R injury was consistently produced by subjecting the hearts to 20 minutes of normo-thermic ischemia, followed by reperfusion for 60 minutes with or without peptide fragment V1, V2, or V3 at the same molar concentration of 1.47 nmol/L. Sections of hearts were stained with 2,3,5-TTC and infarct area calculated as % of risk area.
Post-conditioning I/R experiments were performed as illustrated in FIG. 4A. Different peptide fragments V1-9aa, V2-10aa, V3-16aa, and V3-11aa were used at the same molar concentration of 1.47 nmol/L. Sections of hearts were stained with 2,3,5-TTC and infarct area calculated as % of risk area.
Male C57BL/6J mice (8-12 weeks old) were obtained from the Charles River Laboratories (Wilmington, Mass., USA). After anesthetized with intraperitoneal pentobarbitone (60 mg/kg), mouse hearts were harvested immediately and the aortas were cannulated with a 20-gauge stainless steel blunt needle and transferred to the Langendorff rig and perfused retrograde instantly with modified Krebs-Henseleit buffer (KHB) […] as previously described. See Bouhidel et al. Front Biosci (Landmark Ed) 2014; 19:566-570, and Zhang et al., J Mol Cell Cardiol. 2010; 48:1060-1070. […] Hearts were then harvested for analyses of infarct size. For post-conditioning treatment with peptide fragments, hearts underwent 40 minutes of KHB perfusion, 20 minutes of global ischemia, and a 60 minute reperfusion with different peptide fragments.
At the end of I/R protocol, hearts were sliced perpendicular to the long-axis of the heart at 1 mm intervals and stained with 1% triphenyl tetrazolium chloride (TTC) in PBS for 10 minutes at room temperature. After washing with PBS once, sections of the hearts will be fixed in 10% formalin overnight. […] Infarct size is expressed as an infarct-to-risk zone ratio (the risk zone is the whole ventricular volume in this global ischemic model).

[1] = system: endothelial cell NO production; test: Endothelial cell nitric oxide production by electron spin resonance (ESR); format: cell-based, bovine; settings: endothelial cells, 37° C., 60 minutes, Mean±SEM
Method: (§1) Confluent endothelial cells were incubated with different peptide fragments V1-9aa, V2-10aa, and V3-11aa at the same molar concentration of 1.47 nmol/L at 37° C. for 60 minutes in modified Krebs/HEPEs buffer containing the NO-specific spin trap Fe^2+(DETC)2. Cells were then gently collected for analysis of NO production by using electron spin resonance (ESR).
as §1, with “different combination of” for “different”, “V1-9aa alone, V1-9aa+V2-10aa (1:1), V1-9aa+V3-11aa (1:1),” for “V1-9aa, V2-10aa,”, “V2-10aa+V3-11aa (1:1)” for “V3-11aa”, “same total” for “same”
To further identify the synergistic effects peptide fragments according to the present invention, endothelial cells were treated with different combinations of peptide fragments. The treatment groups were: V1-9aa+V2-10aa group, V1-9aa+V3-11aa group, and V2-10aa+V3-11aa group. The amount of each peptide fragment was 50% of the total amount by molar concentration (or equal volume at the same molar concentration) of peptide fragments in the composition, and the final molar concentration was 1.47 nmol/L. Control group (no peptide treatment) and V1-9aa group (1.47 nmol/L) were used to compare with the combination groups. The results, shown in FIG. 7, indicate that the V1-9aa+V2-10aa group produced more NO than the V1-9aa group (V1-9aa+V2-10aa: 1.90±0.50 fold vs. V1-9aa: 1.42±0.18 fold, p<0.05).
Bovine aortic endothelial cells (BAECs, Cell Systems, Kirkland, Wash., USA) were cultured in media 199 containing 10% fetal bovine serum (FBS) as previously described. See Chalupsky & Cai, PNAS USA 2005; 102:9056-9061; and Nguyen & Cai, PNAS USA 2006; 103:6530-6535.

[2] = single peptide 1.47 nmol/L, ESR (FIG. 6)

Substance	infarct size (infarct area as % of risk area) (I/R-injured mouse hearts)	NO production, fold vs. control [1, 2]	NO production, fold vs. control ([1]; combination experiment (FIG. 7), 1:1, total 1.47 nmol/L, ESR)
V3-11aa: SEQ ID NO: 6, residues 423-433 of human netrin-1: CPCKDGVTGIT (listed as Homo sapiens)	16.7±3.0%	1.45±0.11 fold	–
V2-10aa: SEQ ID NO: 5, residues 368-377 of human netrin-1: CLNCRHNTAG (listed as Homo sapiens)	18.6±1.7%	1.44±0.08 fold	–
V1-9aa: SEQ ID NO: 4, residues 304-312 of human netrin-1: CDCRHNTAG (listed as Homo sapiens)	16.8±2.2%	1.50±0.09 fold	1.42±0.18 fold
